Read-outs that look alike come from different tables or passages of the source.

Data set [1] is described as follows: In vivo rat clearance assay. Conditions: for clearance: plasma, iv. How it is done: In Vivo Rat Clearance Assay
Cannulations of the jugular and carotid vessels of rats under anesthesia were performed one day prior to the pharmacokinetic study. M. J. Free, R. A. Jaffee; ‘Cannulation techniques for the collection blood and other bodily fluids’; in: Animal Models; p. 480-495; N. J. Alexander, Ed.; Academic Press; (1978). Drug (10 mg/mL) was administered via the jugular vein in a vehicle usually consisting of: propylene glycol/saline, containing 100 mM sodium bicarbonate in a 1:1 ratio. Animals were dosed with 10-20 mg drug/kg and blood samples were drawn at 0, 2, 5, 7, 10, 15, 20, 30, 60, and 90 minutes from an indwelling carotid catheter. The blood was centrifuged to plasma and stored at −20° C. until analysis. Pharmacokinetic analysis of data was performed by non-linear regression using standard software such as RStrip (MicroMath Software, UT) and/or Pcnonlin (SCI Software, NC) to obtain clearance values.
Rat plasma was extracted with an equal volume of acetonitrile (containing 0.1% TFA). Samples were then centrifuged at approximately 1,000×g and the supernatant analyzed by gradient HPLC. A typical assay procedure is described below.
A standard curve was run at 20, 10, 5, 2 and 1 μg/mL concentrations.

For another data set, the target named is T1, ICE (Homo sapiens, UniProt P29466).
T1 sequence (P29466 120-297 limits assumed): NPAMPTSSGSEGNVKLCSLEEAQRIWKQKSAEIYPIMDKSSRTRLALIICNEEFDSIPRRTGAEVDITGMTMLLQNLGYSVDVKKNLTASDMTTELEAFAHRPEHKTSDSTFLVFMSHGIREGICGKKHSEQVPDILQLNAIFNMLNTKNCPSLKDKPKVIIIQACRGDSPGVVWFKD
T1 sequence (P29466 317-404 limits assumed): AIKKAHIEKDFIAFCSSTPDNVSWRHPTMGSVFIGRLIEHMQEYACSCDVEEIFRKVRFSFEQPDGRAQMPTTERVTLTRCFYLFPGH
Put plainly: Enzyme assay with UV-visible substrate (visible ICE assay, Succinyl-Tyr-Val-Ala-Asp-pNitroanilide). The data set is classed as biochemical. The method in brief:
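Read-out is the rate of pNA chromophore release (mOD/min, linear fit) monitored at 405-603 nm over 20 min at 37° C. Substrate was succinyl-Tyr-Val-Ala-Asp-pNitroanilide, added after a 15 min room-temperature preincubation of ICE with inhibitor.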

In data set [2] the test system is IL-1β, human peripheral blood mononuclear cells (PBMC). Kind of data set: PBMC cell assay: IL-1β assay with human PBMC or enriched adherent mononuclear cells, LPS-stimulated. The data set is classed as cell-based. The method in brief: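 Buffy-coat human PBMC at 6×10^6 cells/ml, or adherent monocytes enriched by 1 h adherence (2.5−3.0×10^5 cells/well), are given 5–6 compound dilutions bracketing the ICE Ki (final DMSO 0.1%) plus LPS at a final 5 ng/ml. They are incubated 16–18 hr at 37 °C, 5% CO2, and supernatant mature IL-1β is measured by ELISA, with duplicate cultures and duplicate ELISAs.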

In data set [3] the test system is IL-1β production, LPS-challenged mice. Put plainly: In vivo acute assay for efficacy as anti-inflammatory agent: LPS-induced IL-1β production in mice. Details: species or system mouse. Conditions: for inhibition at 50 mg/kg: Mus musculus, po, LPS challenged mice, compound PO, read-out: percent inhibition of IL-1β production. Summed up:
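CD1 mice (n=6) were challenged with LPS 20 mg/kg IP and given compound IP in olive oil:DMSO:ethanol (90:5:5) 1 h after LPS, or at the time of challenge for some analogs. Blood was taken 7 h after LPS and serum IL-1β was measured by ELISA. Oral gavage at 50 mg/kg was also tested.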

[4] abbreviates: * = values obtained upon reassay.
The mark [5] stands for this setting: Homo sapiens, PBMC, * = values obtained upon reassay.
Where [6] appears, read: % inhibition of IL-β production, LPS-challenged mice, 50 mg/kg (Table 3).
The mark [7] stands for this setting: 0 h, administered 0 h relative to time of LPS challenge.
Where [8] appears, read: 2 h, administered −2 h relative to time of LPS challenge.

On to `O=C[C@H](CC(=O)O)NC(=O)[C@@H]1CCCN2C(=O)CC[C@H](NC(=O)C(=O)c3ccccc3)C(=O)N12` [Compound 2002, [3S(1S,9S)]3-(9-Benzoylformylamino-6,10-dioxo-1,2,3,4,7,8,9,10-octahydro-6H-pyridazino[1,2-a][1,2]-diazepine-1-carboxamido)-4-oxobutanoic acid], for which the clearance in data set [1] (10-20 mg/kg) came out at 32 mL/min/kg. Besides, the Ki at ICE (Table 5) worked out at 4 nM. In addition, the IC50 in data set [2] (setting [4]) stood at 860 nM; in data set [2] (setting [5]), 810 nM. Moreover, the “IP % Inhibition” value in data set [3] (setting [6]) is listed as 78%. Besides, the inhibition at 50 mg/kg in data set [3] (setting [7]) turned out to be 87%; in data set [3] (setting [8]) it was 5%.
For the compound `COc1cccc(NC(=O)NN2CCC(=O)N3CCC[C@@H](C(=O)N[C@H](C=O)CC(=O)O)N3C2=O)c1` [Compound 265c, [3S(4S)]3-[6,10-Dioxo-7-(3-methoxyphenylureido)-1,2,3,4,7,8,9,10-octahydro-6H-pyridazino[1,2-a][1,2,4]triazepine-4-carboxamido]-4-oxobutanoic acid], the clearance in data set [1] (Table 17) worked out at 32 mL/min/kg. Moreover, the affinity at ICE (Table 17) corresponds to a Ki of 1100 nM. This compound also gave an IC50 in data set [2] (Homo sapiens, PBMC, Table 17) of 4500 nM.
For `CS(=O)(=O)N[C@H]1CCC(=O)N2CCC[C@@H](C(=O)N[C@@H](CC(=O)O)C(=O)COc3cccnc3)N2C1=O` [Compound 283b, [3S(1S,9S)]3-(6,10-Dioxo-9-methanesulphonamido-1,2,3,4,7,8,9,10-octahydro-6H-pyridazino[1,2-a][1,2]diazepine-1-carboxamido)-4-oxo-5(3-pyridyloxy)pentanoic acid], in data set [1] (Table 17), the “Clearance Rat, i.v.” value was 41 mL/min/kg. The compound also registered an IC50 in data set [2] (Table 17) of 1750 nM.
In data set [1] (Table 17), `COc1ccccc1NC(=O)NN1CCC(=O)N2CCC[C@@H](C(=O)N[C@H](C=O)CC(=O)O)N2C1=O` [Compound 265d, [3S(4S)]3-[6,10-Dioxo-7-(2-methoxyphenylureido)-1,2,3,4,7,8,9,10-octahydro-6H-pyridazino[1,2-a][1,2,4]-triazepine-4-carboxamido]-4-oxobutanoic acid] gave a clearance of 35 mL/min/kg. This compound gave a Ki at ICE (Table 17) of 500 nM. This compound also gave an IC50 in data set [2] (Homo sapiens, PBMC, Table 17) of 1500 nM.
With `O=C[C@H](CC(=O)O)NC(=O)[C@@H]1CCCN2C(=O)CC[C@H](NS(=O)(=O)c3ccccc3)C(=O)N12` [Compound 427], in data set [1] (10-20 mg/kg), the clearance was determined as 36 mL/min/kg. Also, the affinity on ICE (Table 5), expressed as Ki, was 180 nM. The same compound yielded an IC50 in data set [2] (setting [5]) of 4500 nM.
In turn, `O=C[C@H](CC(=O)O)NC(=O)[C@@H]1CCCN2C(=O)CC[C@H](NC(=O)c3ccc4ncccc4c3)C(=O)N12` [Compound 438] registered a clearance in data set [1] (10-20 mg/kg) of 22 mL/min/kg. In addition, at ICE (Table 5), the Ki was determined as 28 nM. This compound also gave an IC50 in data set [2] (setting [5]) of 1000 nM. For the same compound, in data set [3] (setting [6]), the “IP % Inhibition” value came to 40%. In addition, in data set [3] (% inhibition of IL-β production, LPS-challenged mice, PO, 50 mg/kg (Table 3)), the “POS Inhibition” value is 13%.
`COc1ccc(C(=O)N[C@H]2CCC(=O)N3CCC[C@@H](C(=O)N[C@H](C=O)CC(=O)O)N3C2=O)cc1` [Compound 452] gave a clearance in data set [1] (10-20 mg/kg) of 27.3 mL/min/kg. On ICE (Table 5), this compound registered a Ki of 4.5 nM. Further, the IC50 was 800 nM in data set [2] (setting [4]) and 600 nM in data set [2] (setting [5]). Moreover, the inhibition at 50 mg/kg in data set [3] (setting [7]) was 89%; in data set [3] (1 h, administered +1 h relative to time of LPS challenge) it was 70%; in data set [3] (setting [8]) it was 28%.
In data set [1] (10-20 mg/kg), `COc1cccc2nc(C(=O)[C@H](CC(=O)O)NC(=O)CN3C(=O)[C@@H](NC(=O)CCc4ccccc4)CN(C(=O)CCc4ccccc4)c4ccccc43)oc12` [Compound 108b, 4-(7-Methoxybenzoxazol-2-yl)-4-oxo-3(S)-{2-[2-oxo-5-(3-phenylpropionyl)-3(S)-(3-phenylpropionylamino)-2,3,4,5-tetrahydrobenzo[b][1,4]diazepin-1-yl]-acetylamino}butyric acid] registered a clearance greater than 100 mL/min/kg.

Usually clearance stands for the volume of plasma or blood freed of the substance per unit of time. As a reminder, the Ki is the dissociation constant of the complex between target and ligand, obtained from inhibition or displacement. Read a high Ki as weaker binding. Broadly, the IC50 is the point on the concentration scale where inhibition reaches its midpoint. The term inhibition denotes the change of the read-out against control, counted positive when it falls.
